Test system: PAF lethality in CD1 mice
Assay: PAF lethality assay
Type: in vivo
Details: Mus musculus; positive control; oral dosing 45 minutes before i.v. PAF; percent mortality compared to controls
Procedure: To evaluate the active compounds of the present invention, in vivo, they are tested by the so-called PAF lethality assay procedure: Materials:
Mice: CD1 males, all approximately the same weight (about 26 grams), 12 per group.
Vehicle for oral drug dosing: EES (5% ethanol, 5% emulphor, 90% saline). Stored at room temperature.
Drugs: For routine screening at 50 mg/kg, 20 mg drug is dissolved in 4 ml EES, using sonication in a sonicator bath or grinding in a Ten Broeck (trademark) grinder to dissolve drug if necessary. If solubility is still a problem, the drug is used as a suspension.
Vehicle for i.v. Injection: Saline with 2.5 mg/ml Bovine Serum Albumin (BSA, Sigma #A4378) and 0.05 mg/ml Propranolol (Sigma #P0884). Prepared fresh daily and kept at room temperature.
Platelet Activating Factor (PAF): A […] stock solution is prepared by dissolving 1 mg PAF (Calbiochem #429460) in 0.18 ml ethanol. This stored at -20° C. and is diluted in vehicle (see above) the day of use. The concentration of PAF used is calibrated so that when injected at 0.1 ml/10 grams body weight, it will kill approximately 80% of untreated controls. This is usually about […] (a 1 to 2034 dilution from stock). […]
45 minutes before PAF injection, mice are treated orally with drug using 0.1 ml/10 grams body weight. […] Results are expressed as percent mortality as compared to controls. […]

SMILES: O=C1CCN(c2ccccc2)N1 [Phenidone]
- ED50: ~25 mg/kg

From patent publication US5641789A, “Sulfonamide derivatives of benzenefused hydroxy substituted cycloalkyl and heterocyclic ring compounds” (Pfizer Inc., priority 1995, dated 1997)
